{"source": "patent US20250312462A1", "about": "“PAK1 DEGRADERS AND METHODS OF USE THEREOF” (INSTITUTE FOR CANCER RESEARCH D/B/A THE RESEARCH INSTITUTE …, priority 2022, published 2025)", "key": {"[1]": {"target": "PFTAIRE2 (Homo sapiens, UniProt Q96Q40)", "sequence (Q96Q40 whole entry)": "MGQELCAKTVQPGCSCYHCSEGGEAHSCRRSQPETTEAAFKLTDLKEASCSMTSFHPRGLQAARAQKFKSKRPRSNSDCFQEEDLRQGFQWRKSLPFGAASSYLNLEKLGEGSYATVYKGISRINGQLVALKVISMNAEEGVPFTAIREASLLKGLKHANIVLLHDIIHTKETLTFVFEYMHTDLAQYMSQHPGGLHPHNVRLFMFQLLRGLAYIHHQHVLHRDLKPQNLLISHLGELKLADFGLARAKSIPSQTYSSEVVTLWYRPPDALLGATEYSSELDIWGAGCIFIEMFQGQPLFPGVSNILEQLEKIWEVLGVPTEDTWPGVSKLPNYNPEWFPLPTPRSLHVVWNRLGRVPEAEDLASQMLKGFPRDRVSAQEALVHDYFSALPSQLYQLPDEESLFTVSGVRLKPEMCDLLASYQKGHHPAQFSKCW", "assay": "KINOMEscan", "details": "read-out: Percent Control", "experimental": "(§1) The kinase engagement assay (KINOMEscan®) was performed by DiscoverX assessing binding abilities toward a set of kinases."}, "[2]": {"target": "ARK5 (Homo sapiens, UniProt O60285)", "assay": "KINOMEscan", "details": "read-out: Percent Control", "experimental": "as §1"}, "[3]": {"target": "MKNK1 (Homo sapiens, UniProt Q9BUB5)", "assay": "KINOMEscan", "details": "read-out: Percent Control", "experimental": "as §1"}, "[4]": {"target": "ALK(C1156Y) (Homo sapiens, UniProt Q9UM73, C1156Y)", "assay": "KINOMEscan", "details": "read-out: Percent Control", "experimental": "as §1"}, "[5]": {"target": "FGFR1 (Homo sapiens, UniProt P11362)", "assay": "KINOMEscan", "details": "read-out: Percent Control", "experimental": "as §1"}, "[6]": {"target": "STK39 (Homo sapiens, UniProt Q9UEW8)", "assay": "KINOMEscan", "details": "read-out: Percent Control", "experimental": "as §1"}, "[7]": {"target": "OSR1 (Homo sapiens, UniProt O95747)", "sequence (O95747 whole entry)": "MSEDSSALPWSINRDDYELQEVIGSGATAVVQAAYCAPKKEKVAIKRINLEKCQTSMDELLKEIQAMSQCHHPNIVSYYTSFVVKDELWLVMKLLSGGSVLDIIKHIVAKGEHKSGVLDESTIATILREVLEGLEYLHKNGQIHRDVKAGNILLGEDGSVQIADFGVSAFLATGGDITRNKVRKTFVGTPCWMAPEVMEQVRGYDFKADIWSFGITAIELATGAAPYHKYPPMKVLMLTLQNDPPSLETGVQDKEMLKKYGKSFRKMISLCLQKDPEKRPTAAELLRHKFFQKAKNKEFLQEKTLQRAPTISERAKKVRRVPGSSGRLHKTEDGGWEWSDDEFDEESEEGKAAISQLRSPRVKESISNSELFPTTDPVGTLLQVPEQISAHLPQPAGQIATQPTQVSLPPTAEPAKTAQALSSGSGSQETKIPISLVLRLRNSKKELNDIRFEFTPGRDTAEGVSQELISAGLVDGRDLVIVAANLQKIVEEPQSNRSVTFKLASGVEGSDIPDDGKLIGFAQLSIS", "assay": "KINOMEscan", "details": "read-out: Percent Control", "experimental": "as §1"}, "[8]": {"target": "TNNI3K (Homo sapiens, UniProt Q59H18)", "assay": "KINOMEscan", "details": "read-out: Percent Control", "experimental": "as §1"}, "[9]": {"target": "KIT(V559D) (Homo sapiens, UniProt P10721, V559D)", "assay": "KINOMEscan", "details": "read-out: Percent Control", "experimental": "as §1"}, "[10]": {"target": "TYK2(JH2domain-pseudokinase) (Homo sapiens, UniProt P29597)", "assay": "KINOMEscan", "details": "read-out: Percent Control", "experimental": "as §1"}, "[11]": {"target": "NEK10 (Homo sapiens, UniProt Q6ZWH5)", "sequence (Q6ZWH5 whole entry)": "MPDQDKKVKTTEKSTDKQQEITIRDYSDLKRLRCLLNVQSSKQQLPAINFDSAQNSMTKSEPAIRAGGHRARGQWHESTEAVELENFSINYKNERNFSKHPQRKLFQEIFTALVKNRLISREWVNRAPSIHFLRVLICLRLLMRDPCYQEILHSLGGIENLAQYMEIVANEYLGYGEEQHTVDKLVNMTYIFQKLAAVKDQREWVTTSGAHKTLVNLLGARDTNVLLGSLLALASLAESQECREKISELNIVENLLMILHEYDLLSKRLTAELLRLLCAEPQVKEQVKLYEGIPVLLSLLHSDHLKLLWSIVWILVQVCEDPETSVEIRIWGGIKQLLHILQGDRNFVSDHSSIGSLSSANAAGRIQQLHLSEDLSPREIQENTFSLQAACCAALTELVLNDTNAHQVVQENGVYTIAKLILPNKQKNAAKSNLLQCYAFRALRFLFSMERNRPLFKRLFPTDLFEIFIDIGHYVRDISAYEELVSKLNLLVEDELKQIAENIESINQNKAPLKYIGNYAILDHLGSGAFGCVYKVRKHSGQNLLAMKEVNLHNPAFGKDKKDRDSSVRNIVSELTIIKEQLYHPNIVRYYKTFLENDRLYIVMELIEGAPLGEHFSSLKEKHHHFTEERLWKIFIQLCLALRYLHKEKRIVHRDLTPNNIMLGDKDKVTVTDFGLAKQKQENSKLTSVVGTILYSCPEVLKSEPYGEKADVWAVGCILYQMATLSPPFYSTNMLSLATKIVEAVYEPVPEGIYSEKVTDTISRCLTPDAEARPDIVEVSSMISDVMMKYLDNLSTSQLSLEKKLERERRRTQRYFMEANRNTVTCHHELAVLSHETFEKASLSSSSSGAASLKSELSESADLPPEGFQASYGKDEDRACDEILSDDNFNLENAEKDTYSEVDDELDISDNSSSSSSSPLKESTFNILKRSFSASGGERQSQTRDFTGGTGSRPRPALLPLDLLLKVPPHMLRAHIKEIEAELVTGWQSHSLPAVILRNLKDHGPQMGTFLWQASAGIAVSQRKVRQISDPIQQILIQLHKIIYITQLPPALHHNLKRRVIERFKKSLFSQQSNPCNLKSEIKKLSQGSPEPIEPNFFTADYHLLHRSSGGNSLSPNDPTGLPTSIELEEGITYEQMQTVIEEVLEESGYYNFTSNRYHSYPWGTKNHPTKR", "assay": "KINOMEscan", "details": "read-out: Percent Control", "experimental": "as §1"}, "[12]": {"target": "TIE1 (Homo sapiens, UniProt P35590)", "assay": "KINOMEscan", "details": "read-out: Percent Control", "experimental": "as §1"}, "[13]": {"target": "HCK (Homo sapiens, UniProt P08631)", "assay": "KINOMEscan", "details": "read-out: Percent Control", "experimental": "as §1"}, "[14]": {"target": "CSNK1E (Homo sapiens, UniProt P49674)", "assay": "KINOMEscan", "details": "read-out: Percent Control", "experimental": "as §1"}, "[15]": {"target": "PAK1 (Homo sapiens, UniProt Q13153)", "assay": "PAK1 degradation in Panc1 cells, Western blot", "assay_type": "cell-based", "set-up": "endogenous in cells", "details": "compared with BJG-05-014 and BJG-05-027", "procedure": "In vitro kinase assays were performed using recombinant PAK1 and PAK2, using a library of small molecule protein kinase inhibitors. […] FIG. 1C is a series of Western blots showing the degradation of PAK1 in Panc1 cells by the NVS-PAK1-1-based (allosteric) degraders BJG-05-014, BJG-05-027, and BJG-05-039. Quantification is shown below in the bar graph. FIG. 1D is a series of Western blots showing PAK1, PAK2, and GAPDH in Panc1 cells treated with the indicated amounts of the NVS-PAK1-1-based degrader BJG-05-039 and ATP-competitive degraders BJG-05-093, BJG-05-094, and BJG-05-095.\nBJG-05-014, BJG-05-027, and BJG-05-039 were tested in Panc1 cells for their ability to degrade PAK1."}, "[16]": {"target": "ABL1(M351T)-phosphorylated (Homo sapiens, UniProt P00519, M351T)", "assay": "KINOMEscan", "details": "read-out: Percent Control", "experimental": "as §1"}, "[17]": {"target": "CSF1R (Homo sapiens, UniProt P07333)", "sequence (P07333 20-972)": "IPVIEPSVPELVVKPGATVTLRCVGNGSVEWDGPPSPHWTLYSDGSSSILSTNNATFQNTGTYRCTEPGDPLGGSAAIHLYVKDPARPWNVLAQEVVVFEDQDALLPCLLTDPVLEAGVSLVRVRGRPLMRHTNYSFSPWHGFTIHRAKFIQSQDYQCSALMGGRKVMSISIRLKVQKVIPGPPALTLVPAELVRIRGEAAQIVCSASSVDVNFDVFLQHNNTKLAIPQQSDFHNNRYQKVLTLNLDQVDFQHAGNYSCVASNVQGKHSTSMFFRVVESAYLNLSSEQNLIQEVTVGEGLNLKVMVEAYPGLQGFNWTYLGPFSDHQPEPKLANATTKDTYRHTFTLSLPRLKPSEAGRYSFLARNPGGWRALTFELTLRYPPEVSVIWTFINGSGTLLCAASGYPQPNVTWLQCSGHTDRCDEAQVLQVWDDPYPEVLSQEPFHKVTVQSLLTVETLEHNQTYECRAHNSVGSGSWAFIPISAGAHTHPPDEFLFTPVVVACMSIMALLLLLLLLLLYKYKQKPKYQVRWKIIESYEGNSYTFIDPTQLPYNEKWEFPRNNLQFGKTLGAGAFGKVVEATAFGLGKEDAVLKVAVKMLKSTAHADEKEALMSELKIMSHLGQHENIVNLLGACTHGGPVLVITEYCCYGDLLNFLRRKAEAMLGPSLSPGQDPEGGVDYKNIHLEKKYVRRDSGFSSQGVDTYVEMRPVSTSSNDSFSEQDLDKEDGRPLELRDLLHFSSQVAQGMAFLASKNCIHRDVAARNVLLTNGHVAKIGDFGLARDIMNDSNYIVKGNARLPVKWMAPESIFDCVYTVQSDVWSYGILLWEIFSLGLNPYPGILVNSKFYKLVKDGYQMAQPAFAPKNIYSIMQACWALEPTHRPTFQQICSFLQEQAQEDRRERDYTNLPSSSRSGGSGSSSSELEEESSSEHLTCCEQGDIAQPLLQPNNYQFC", "assay": "KINOMEscan", "details": "read-out: Percent Control", "experimental": "as §1"}, "[18]": {"target": "PRKCI (Homo sapiens, UniProt P41743)", "assay": "KINOMEscan", "details": "read-out: Percent Control", "experimental": "as §1"}, "[19]": {"target": "MAP4K4 (Homo sapiens, UniProt O95819)", "assay": "KINOMEscan", "details": "read-out: Percent Control", "experimental": "as §1"}, "[20]": {"target": "PAK3 (Homo sapiens, UniProt O75914)", "assay": "KINOMEscan", "details": "read-out: Percent Control", "experimental": "as §1"}, "[21]": {"target": "TSSK1B (Homo sapiens, UniProt Q9BXA7)", "sequence (Q9BXA7 whole entry)": "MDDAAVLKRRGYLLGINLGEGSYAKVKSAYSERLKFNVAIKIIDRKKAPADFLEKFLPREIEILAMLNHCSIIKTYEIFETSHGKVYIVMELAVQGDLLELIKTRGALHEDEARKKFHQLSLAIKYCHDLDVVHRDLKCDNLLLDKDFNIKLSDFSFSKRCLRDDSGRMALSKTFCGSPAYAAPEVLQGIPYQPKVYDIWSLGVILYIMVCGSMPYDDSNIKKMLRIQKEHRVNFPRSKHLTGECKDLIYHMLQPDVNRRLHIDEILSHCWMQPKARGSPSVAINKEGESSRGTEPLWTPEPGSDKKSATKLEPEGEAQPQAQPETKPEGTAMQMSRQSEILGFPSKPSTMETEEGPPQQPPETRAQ", "assay": "KINOMEscan", "details": "read-out: Percent Control", "experimental": "as §1"}, "[22]": {"target": "CDK4 (Homo sapiens, UniProt P11802)", "sequence (P11802 whole entry)": "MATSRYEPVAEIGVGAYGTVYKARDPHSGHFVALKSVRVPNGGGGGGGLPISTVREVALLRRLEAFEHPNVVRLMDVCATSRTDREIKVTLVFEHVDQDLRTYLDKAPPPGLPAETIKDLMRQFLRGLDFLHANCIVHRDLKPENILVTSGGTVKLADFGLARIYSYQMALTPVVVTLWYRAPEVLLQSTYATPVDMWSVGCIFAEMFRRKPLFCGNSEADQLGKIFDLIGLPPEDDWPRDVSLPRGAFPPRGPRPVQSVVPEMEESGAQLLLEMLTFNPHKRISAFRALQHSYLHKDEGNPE", "assay": "KINOMEscan", "details": "read-out: Percent Control", "experimental": "as §1"}, "[23]": {"target": "KIT(V559D, T670I) (Homo sapiens, UniProt P10721, T670I/V559D)", "assay": "KINOMEscan", "details": "read-out: Percent Control", "experimental": "as §1"}, "[24]": {"target": "MLK2 (Homo sapiens, UniProt Q02779)", "assay": "KINOMEscan", "details": "read-out: Percent Control", "experimental": "as §1"}, "[25]": {"target": "HIPK3 (Homo sapiens, UniProt Q9H422)", "assay": "KINOMEscan", "details": "read-out: Percent Control", "experimental": "as §1"}, "[26]": {"target": "CHEK2 (Homo sapiens, UniProt O96017)", "assay": "KINOMEscan", "details": "read-out: Percent Control", "experimental": "as §1"}, "[27]": {"target": "IRAK3 (Homo sapiens, UniProt Q9Y616)", "assay": "KINOMEscan", "details": "read-out: Percent Control", "experimental": "as §1"}, "[28]": {"target": "EGFR(L747-S752del, P753S) (Homo sapiens, UniProt P00533, DEL747-752/P753S)", "sequence (P00533 with tags, fused parts or gaps DEL747-752/P753S)": "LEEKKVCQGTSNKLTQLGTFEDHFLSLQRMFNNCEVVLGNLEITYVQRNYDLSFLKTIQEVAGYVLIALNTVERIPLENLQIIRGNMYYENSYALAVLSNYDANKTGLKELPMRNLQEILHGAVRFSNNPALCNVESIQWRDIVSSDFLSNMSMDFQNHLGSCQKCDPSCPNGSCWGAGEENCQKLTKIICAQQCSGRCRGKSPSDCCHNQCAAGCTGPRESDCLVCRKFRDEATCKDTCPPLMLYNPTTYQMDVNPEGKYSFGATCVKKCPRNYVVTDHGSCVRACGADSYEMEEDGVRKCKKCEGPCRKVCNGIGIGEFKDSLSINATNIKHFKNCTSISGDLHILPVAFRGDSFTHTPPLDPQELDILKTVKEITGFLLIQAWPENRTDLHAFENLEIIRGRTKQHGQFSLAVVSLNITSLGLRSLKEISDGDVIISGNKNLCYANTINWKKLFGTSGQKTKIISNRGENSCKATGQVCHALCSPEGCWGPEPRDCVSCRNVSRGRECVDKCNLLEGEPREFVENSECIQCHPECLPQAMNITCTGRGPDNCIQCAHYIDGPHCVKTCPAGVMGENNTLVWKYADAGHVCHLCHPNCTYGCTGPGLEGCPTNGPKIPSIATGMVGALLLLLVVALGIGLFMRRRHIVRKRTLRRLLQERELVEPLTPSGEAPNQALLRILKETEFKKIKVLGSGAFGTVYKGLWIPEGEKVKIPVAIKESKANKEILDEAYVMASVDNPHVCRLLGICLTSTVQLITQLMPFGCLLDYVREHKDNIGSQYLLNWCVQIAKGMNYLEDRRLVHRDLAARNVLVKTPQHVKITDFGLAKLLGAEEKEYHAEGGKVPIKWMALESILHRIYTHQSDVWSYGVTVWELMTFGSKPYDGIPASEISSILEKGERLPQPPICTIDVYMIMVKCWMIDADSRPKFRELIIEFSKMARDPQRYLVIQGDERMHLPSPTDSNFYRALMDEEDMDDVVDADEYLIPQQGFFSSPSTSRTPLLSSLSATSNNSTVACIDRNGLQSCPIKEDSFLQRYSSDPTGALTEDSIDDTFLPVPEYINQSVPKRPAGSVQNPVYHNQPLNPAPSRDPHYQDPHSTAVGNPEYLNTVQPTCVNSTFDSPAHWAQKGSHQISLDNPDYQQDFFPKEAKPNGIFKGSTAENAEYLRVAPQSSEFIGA", "assay": "KINOMEscan", "details": "read-out: Percent Control", "experimental": "as §1"}, "[29]": {"target": "PRKCD (Homo sapiens, UniProt Q05655)", "assay": "KINOMEscan", "details": "read-out: Percent Control", "experimental": "as §1"}, "[30]": {"target": "BRSK2 (Homo sapiens, UniProt Q8IWQ3)", "assay": "KINOMEscan", "details": "read-out: Percent Control", "experimental": "as §1"}, "[31]": {"target": "YES (Homo sapiens, UniProt P07947)", "assay": "KINOMEscan", "details": "read-out: Percent Control", "experimental": "as §1"}, "[32]": {"target": "ABL1-nonphosphorylated (Homo sapiens, UniProt P00519)", "assay": "KINOMEscan", "details": "read-out: Percent Control", "experimental": "as §1"}, "[33]": {"target": "LIMK1 (Homo sapiens, UniProt P53667)", "assay": "KINOMEscan", "details": "read-out: Percent Control", "experimental": "as §1"}}, "data": [{"smiles": "O=C1CCC(N2C(=O)c3cccc(NCCCCCCCCNC(=O)N4CC[C@H](NC5=Nc6cc(F)ccc6N(CC(F)F)c6ccc(Cl)cc65)C4)c3C2=O)C(=O)N1", "note": "(stereo partly drawn) [BJG-05-039, (3S)-3-((2-Chloro-5-(2,2-difluoroethyl)-8-fluoro-5H-dibenzo[b,e][1,4]diazepin-11-yl)amino)-N-(8-((2-(2,6-dioxopiperidin-3-yl)-1,3-dioxoisoindolin-4-yl)amino)octyl)pyrrolidine-1-carboxamide]", "values": [{"measurement": "remaining binding at 10 µM", "setting": "[1]", "result": 78, "unit": "%"}, {"measurement": "remaining binding at 10 µM", "setting": "[2]", "result": 45, "unit": "%"}, {"measurement": "remaining binding at 10 µM", "setting": "[3]", "result": 100, "unit": "%"}, {"measurement": "remaining binding at 10 µM", "setting": "[4]", "result": 100, "unit": "%"}, {"measurement": "remaining binding at 10 µM", "setting": "[5]", "result": 97, "unit": "%"}, {"measurement": "remaining binding at 10 µM", "setting": "[6]", "result": 70, "unit": "%"}, {"measurement": "remaining binding at 10 µM", "setting": "[7]", "result": 100, "unit": "%"}, {"measurement": "remaining binding at 10 µM", "setting": "[8]", "result": 82, "unit": "%"}, {"measurement": "remaining binding at 10 µM", "setting": "[9]", "result": 81, "unit": "%"}, {"measurement": "remaining binding at 10 µM", "setting": "[10]", "result": 97, "unit": "%"}, {"measurement": "remaining binding at 10 µM", "setting": "[11]", "result": 99, "unit": "%"}, {"measurement": "remaining binding at 10 µM", "setting": "[12]", "result": 62, "unit": "%"}, {"measurement": "remaining binding at 10 µM", "setting": "[13]", "result": 90, "unit": "%"}, {"measurement": "remaining binding at 10 µM", "setting": "[14]", "result": 61, "unit": "%"}, {"measurement": "Ability to degrade PAK1", "setting": "[15]", "result": "most promising profile"}, {"measurement": "remaining binding at 10 µM", "setting": "[16]", "result": 100, "unit": "%"}, {"measurement": "remaining binding at 10 µM", "setting": "[17]", "result": 89, "unit": "%"}, {"measurement": "remaining binding at 10 µM", "setting": "[18]", "result": 100, "unit": "%"}, {"measurement": "remaining binding at 10 µM", "setting": "[19]", "result": 45, "unit": "%"}, {"measurement": "remaining binding at 10 µM", "setting": "[20]", "result": 100, "unit": "%"}, {"measurement": "remaining binding at 10 µM", "setting": "[21]", "result": 73, "unit": "%"}, {"measurement": "remaining binding at 10 µM", "setting": "[22]", "result": 86, "unit": "%"}, {"measurement": "remaining binding at 10 µM", "setting": "[23]", "result": 85, "unit": "%"}, {"measurement": "remaining binding at 10 µM", "setting": "[24]", "result": 97, "unit": "%"}, {"measurement": "remaining binding at 10 µM", "setting": "[25]", "result": 100, "unit": "%"}, {"measurement": "remaining binding at 10 µM", "setting": "[26]", "result": 62, "unit": "%"}, {"measurement": "remaining binding at 10 µM", "setting": "[27]", "result": 55, "unit": "%"}, {"measurement": "remaining binding at 10 µM", "setting": "[28]", "result": 82, "unit": "%"}, {"measurement": "remaining binding at 10 µM", "setting": "[29]", "result": 97, "unit": "%"}, {"measurement": "remaining binding at 10 µM", "setting": "[30]", "result": 99, "unit": "%"}, {"measurement": "remaining binding at 10 µM", "setting": "[31]", "result": 79, "unit": "%"}, {"measurement": "remaining binding at 10 µM", "setting": "[32]", "result": 83, "unit": "%"}, {"measurement": "remaining binding at 10 µM", "setting": "[33]", "result": 94, "unit": "%"}]}]}
